For one series, the target named is T1, human α9α10 nAChRs (Homo sapiens, UniProt Q9GZZ6+Q9UGM1).
T1 construct: expressed in transfected cells; host or cells: Xenopus laevis oocytes (cRNA injection)
The experiment in a line: cell-based. Format: cell-based.

For series [1], the system named is rat N-type (Cav2.2) calcium channels. The settings on record: read-out: IC50 rN-type (Cav2.2); cited from earlier work.
The test system of another series is rat α9α10 nAChRs. The settings on record: cited from earlier work.
In series [2] the test system is recombinant human Cav2.3 calcium channels. The following applies: read-out: IC50 hCav2.3; cited from earlier work.
Series [3] has the same test system. Format: cell-based. The settings on record: read-out: IC50 hCav2.3.
The subject of series [4] is rat N-type (Cav2.2) calcium channels. Format: cell-based. The following applies: read-out: IC50 rN-type (Cav2.2).
A short description of a further series: in vitro. The settings on record: male, human, serum.

The structures appear in SMILES notation. “And” between values parts separate entries of the source, which are not always exact repeats. Equal entries are not always repeated. Where two headings read alike, the source gives them in different places. Positions of bridges follow the written chain, without caps; N, C: chain ends. Residues, ends and D or L forms follow the SMILES beside them.

In general, IC50 refers to the concentration at which inhibition is half-maximal. As a reminder, the share remaining is the share of the starting amount still present when the sample was taken. A higher share remaining goes with greater stability.

T1 sequence (Q9UGM1 26-479 limits assumed): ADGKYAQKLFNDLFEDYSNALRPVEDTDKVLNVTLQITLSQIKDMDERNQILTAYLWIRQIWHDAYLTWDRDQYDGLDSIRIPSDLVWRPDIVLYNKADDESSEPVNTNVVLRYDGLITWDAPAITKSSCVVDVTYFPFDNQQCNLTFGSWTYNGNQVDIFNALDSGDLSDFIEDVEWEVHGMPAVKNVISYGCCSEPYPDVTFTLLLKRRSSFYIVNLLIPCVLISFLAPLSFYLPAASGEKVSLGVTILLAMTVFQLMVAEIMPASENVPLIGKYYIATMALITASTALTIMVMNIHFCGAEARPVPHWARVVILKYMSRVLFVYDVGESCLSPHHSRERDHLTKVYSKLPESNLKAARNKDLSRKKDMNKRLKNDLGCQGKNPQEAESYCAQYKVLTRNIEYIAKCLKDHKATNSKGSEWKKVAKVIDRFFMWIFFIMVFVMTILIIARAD
T1 sequence (Q9GZZ6 25-450): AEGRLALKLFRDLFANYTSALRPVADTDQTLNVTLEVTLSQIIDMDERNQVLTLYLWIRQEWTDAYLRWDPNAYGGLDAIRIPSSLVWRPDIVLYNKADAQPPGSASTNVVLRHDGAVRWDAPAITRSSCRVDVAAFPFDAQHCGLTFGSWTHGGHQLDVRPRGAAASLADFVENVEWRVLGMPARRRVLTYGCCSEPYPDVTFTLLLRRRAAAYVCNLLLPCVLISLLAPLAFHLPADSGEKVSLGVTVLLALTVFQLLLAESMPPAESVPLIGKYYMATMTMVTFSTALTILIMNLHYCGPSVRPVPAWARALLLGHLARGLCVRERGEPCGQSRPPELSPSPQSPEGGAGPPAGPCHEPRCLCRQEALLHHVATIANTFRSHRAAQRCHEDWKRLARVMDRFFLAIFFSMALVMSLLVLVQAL

At human α9α10 nAChRs, `CC[C@H](C)[C@@H]1NC(=O)[C@H](CCC(=O)O)NC(=O)[C@@H]2CCCN2C(=O)[C@H](Cc2cnc[nH]2)NC(=O)[C@H](CC(=O)O)NC(=O)[C@H](Cc2ccc(O)cc2)NC(=O)[C@H](CC(N)=O)NC(=O)[C@@H]2CSSC[C@H](NC(=O)CN)C(=O)N[C@@H](CSSC[C@@H](C(N)=O)NC1=O)C(=O)N[C@@H](CO)C(=O)N[C@@H](CC(=O)O)C(=O)N1CCC[C@H]1C(=O)N[C@@H](CCCNC(=N)N)C(=O)N2` [Vc1.1, reference compound] showed an IC50 of 320 nM.
Take `CC[C@H](C)[C@@H]1NC(=O)[C@H](CCC(=O)O)NC(=O)[C@@H]2CCCN2C(=O)[C@H](Cc2c[nH]cn2)NC(=O)[C@H](CC(=O)O)NC(=O)[C@H](Cc2ccc(O)cc2)NC(=O)[C@H](CC(N)=O)NC(=O)[C@@H]2CSSC[C@@H]3NC(=O)CNC(=O)CNC(=O)CNC(=O)[C@H](C)NC(=O)[C@H](C)NC(=O)CNC(=O)CNC(=O)[C@H](CSSC[C@H](NC3=O)C(=O)N[C@@H](CO)C(=O)N[C@@H](CC(=O)O)C(=O)N3CCC[C@H]3C(=O)N[C@@H](CCCNC(=N)N)C(=O)N2)NC1=O` [cVc1.1]: the IC50 in series [1] was 0.3 nM; in the series on rat α9α10 nAChRs, 765 nM; in series [2] it was 0.29 nM.
Turning to `CC[C@H](C)[C@@H]1NC(=O)[C@H](CCC(=O)O)NC(=O)[C@@H]2CCCN2C(=O)[C@H](Cc2c[nH]cn2)NC(=O)[C@H](CC(=O)O)NC(=O)[C@H](Cc2ccc(O)cc2)NC(=O)[C@H](CC(N)=O)NC(=O)[C@H](Cc2ccccc2)NC(=O)[C@H](CCCNC(=N)N)NC(=O)[C@@H]2CCCN2C(=O)[C@H](CC(=O)O)NC(=O)[C@H](CO)NC(=O)[C@@H]2CSSC[C@H](NC1=O)C(=O)NCC(=O)NCC(=O)N[C@@H](C)C(=O)N[C@@H](C)C(=O)NCC(=O)NCC(=O)NCC(=O)N[C@@H](Cc1c[nH]cn1)C(=O)N2` [hcVc1.1] (cyclo(AAGGGHCSDPRFNYDHPEICGG); disulfide 7-20), the IC50 in series [3] was ~0.9 nM and 0.961 nM; in series [4], ~0.9 nM and 0.857 nM. At human α9α10 nAChRs, the “lower potency than cVc1.1 at human recombinant α9α10 nAChR currents” value is listed as “two-fold”.
In the series “in vitro”, `CC[C@H](C)[C@@H]1NC(=O)[C@H](CCC(=O)O)NC(=O)[C@@H]2CCCN2C(=O)[C@H](Cc2cnc[nH]2)NC(=O)[C@H](CC(=O)O)NC(=O)[C@H](Cc2ccc(O)cc2)NC(=O)[C@H](CC(N)=O)NC(=O)[C@H](Cc2ccccc2)NC(=O)[C@H](CCCNC(=N)N)NC(=O)[C@@H]2CCCN2C(=O)[C@H](CC(=O)O)NC(=O)[C@H](CO)NC(=O)[C@@H]2CSSC[C@H](NC1=O)C(=O)NCC(=O)NCC(=O)N[C@@H](C)C(=O)N[C@@H](C)C(=O)NCC(=O)NCC(=O)NCC(=O)N[C@@H](Cc1cnc[nH]1)C(=O)N2` [hcVc1.1] (cyclo(AAGGGHCSDPRFNYDHPEICGG); disulfide 7-20) had a fraction remaining at 24 h of roughly 90%.

The record behind these values is paper PMC4542547 (Scientific Reports, 2015).
